Measurements taken from patent publication US12358941B2, “Lipidic analogs of anti-cancer stem cell agent” (VIRGINIA COMMONWEALTH UNIVERSITY, priority 2019, dated 2025).
“And” between values parts separate entries of the source, which are not always exact repeats. Equal values may be shown once. “Also recorded” adds a separate entry of the source. Read-outs that look alike come from different tables or passages of the source. Values belong to the molecule of their own block, whether it stands above or below them.

Legend:
[1] = background statement; cited from earlier work
[2] = test system: HT-29 spheroids (CSCs); assay: Primary spheroids inhibition assay, HT-29; format: cell-based
Procedure: (§1) The inhibitory potential of lipid-modified compounds of Formula I against CSCs was tested using a primary spheroids inhibition assay in various cancer cell lines including HT-29, RKO, HCT-116, LS1034, HC-15, WiDr, SW480, COLO205, NCI-H508, SW1116, LS174T, KM12 etc. Cells were grown both under monolayer and spheroid conditions as described in earlier work [Patel, N. J., et al. ACS Chem. Biol. 2014, 9, 1826-1833]. For primary sphere assay, cells were plated in non-treated, low adhesion, 96 wells plate at the concentration of 100 cells/100 μL/well in stem cell media (SCM) that consisted of DMEM:F12:AA, supplemented with 1×B27, 20 ng/mL epidermal growth factor, and 10 ng/mL fibroblast growth factor. After 4 h of incubation, vehicle (control) or G2.2 and its lipid analogs at the desired concentrations were added to each well (at least in triplicates for each sample). On day five, numbers of spheres ranging from 50 to 150 micrometers in diameter were counted using phase contrast microscope and percent inhibition was calculated compared to control. For monolayer assay, approximately 2.5×10^3 cells/100 μL/well were plated in 96-well tissue culture treated plate. After overnight incubation at 37° C. vehicle (control) or G2.2 was added at the desired concentration and the cells were further incubated for 60-72 h. At the end of the incubation, 10 μL of 5 mg mL^−1 MTT solution ((3-(4,5-dimethylthiazol-2-yl)-2,5-diphenyltetrazolium bromide, Sigma) made in phosphate buffered saline (PBS) (Gibco) was added to each well and incubated for minimum of 2 to 3 h until crystals formation was observed. Following this, 150 μL of 4 mM HCl (Sigma) in isopropanol solution was added dropwise to each well and the mixture was triturated until the crystals dissolve completely. Finally, the plate was placed on the spectrophotometer reader and read at 590 nm and growth inhibition was calculated as percent of control.

[3] = test system: activated partial thromboplastin time (APTT), human plasma; assay: APTT clotting assay in human plasma; format: biochemical; settings: for Safety Index: APTT doubling concentration vs HT-29 CSC IC50; for Concentration required to double APTT: citrated human plasma
Procedure: Glycosaminoglycans, especially heparin/HS, are known for their ability to inhibit the coagulation system. Because G2.2 and its lipid analogs are mimetics of GAGs, it is important to study their effects on the coagulation system. We measured the concentration of lipid-modified G2.2 analogs required to double the activated partial thromboplastin time (APTT; Table 4). The experiments were performed as described in earlier work [Henry, B. L., et al. Blood Coag Fibrinol 2009, 20, 27-34]. Briefly, a standard one-stage recalcification assay in a BBL Fibrosystem fibrometer (Becton-Dickinson, Sparles, MD) was used to measure clotting times in human plasma. A 10 μL aqueous solution of the lipidic analog at a desired concentration was mixed with 90 μL of citrated human plasma and 100 μL of prewarmed APTT reagent. After incubation for 4 min at 37° C., clotting was initiated by adding 100 μL of prewarmed 25 mM CaCl2), and the time to clot was noted. The concentration of the analog required to double the clotting time was calculated from the clotting time versus concentration profile. In general, cholesterol modification of G2.2 increased its anticoagulation potency.

[4] = test system: HT-29 cells (monolayer); assay: Monolayer MTT growth assay, HT-29; format: cell-based; settings: HT-29 monolayer growth
Procedure: as §1

[5] = Pharmacokinetics in rats, plasma concentration by fluorimetry; format: in vivo, Sprague-Dawley rats
Procedure: The animal protocol was approved by the Institutional Animal Care and Use Committee at VCU. Adult male Sprague-Dawley rats weighing 250-275 g were acclimatized for over 3 days with free access to standard rat diet and tap water. Animals were then placed on overnight fasting (i.e., without diet, but with free access to water) on a day before the PK studies. Each animal was anesthetized with an IP injection of urethane and an aliquot (0.1 mL) of blood was withdrawn as a prior-to-dosing or time 0 sample from the jugular vein with a use of 0.11 M sodium citrate (0.01 mL) as anti-coagulant. Rats (n=4 or 5) received G2.2 or IIb via IV injection or PO administration, while one animal received G2.2 via IP bolus injection. G2.2 and IIb were dissolved in sterile saline (0.1 mL IV and IP; 0.2 mLs PO). A series of blood aliquots (0.1 mL) were sampled from the jugular vein at different time points over 0 to 8 h. The blood samples were immediately centrifuged at 11,750 g for 3 min to yield the plasma samples, which were then stored at −70° C. At the conclusion of PK studies, all rats were euthanized by exsanguination under the surgical anesthesia.
The concentrations of G2.2 and lipid analogs in plasma were determined by the quantitative fluorimetry assay in which plasma samples were first diluted 2-fold (v/v) with 0.05 M PBS (pH 7.4), then an equal volume of methanol added and the mixture centrifuged at 11,750 g for 5 min. The supernatants were transferred to black 96 well-plates and the fluorescence at 528 nm (G2.2) or 460 nm (lipid analog) (λEX=340 nm) read using a microplate reader. Reference profiles, prepared for concentrations in the range of 0.5 and 50 μg/mL (R^2=0.98-0.99), were used to calculate plasma concentration at every time point.
The PK profile was analyzed using conventional analysis. The parameters deduced included peak plasma concentration (Cmax), the time required to reach Cmax (Tmax), the plasma concentration-time curve (AUC0-∞), the terminal half-life (t1/2), the apparent clearance (CL/F) and the apparent pseudo-steady state volume of distribution (Vpss/F). The absolute bioavailability (F) was deduced for G2.2, while relative bioavailability was deduced for lipid analogs.

[6] = test system: RKO colon spheroids; assay: Primary spheroids inhibition assay, RKO; format: cell-based; settings: FIG. 6
Procedure: The inhibitory potential of lipid-modified compounds of Formula I against CSCs was tested using a primary spheroids inhibition assay in various cancer cell lines including HT-29, RKO, HCT-116, LS1034, HC-15, WiDr, SW480, COLO205, NCI-H508, SW1116, LS174T, KM12 etc. Cells were grown both under monolayer and spheroid conditions as described in earlier work [Patel, N. J., et al. ACS Chem. Biol. 2014, 9, 1826-1833]. […] On day five, numbers of spheres ranging from 50 to 150 micrometers in diameter were counted using phase contrast microscope and percent inhibition was calculated compared to control. […] At the end of the incubation, 10 μL of 5 mg mL^−1 MTT solution ((3-(4,5-dimethylthiazol-2-yl)-2,5-diphenyltetrazolium bromide, Sigma) made in phosphate buffered saline (PBS) (Gibco) was added to each well and incubated for minimum of 2 to 3 h until crystals formation was observed. Following this, 150 μL of 4 mM HCl (Sigma) in isopropanol solution was added dropwise to each well and the mixture was triturated until the crystals dissolve completely. Finally, the plate was placed on the spectrophotometer reader and read at 590 nm and growth inhibition was calculated as percent of control.

[7] = test system: normal colon tissue spheroids; assay: Patient-derived spheroid growth, normal colon tissue; format: cell-based, human; settings: 5 μM
[8] = test system: CSC-induced HT-29 xenografts; assay: CSC-induced HT-29 xenograft model; format: in vivo
Procedure: Briefly, the protocols were approved by the Animal Component of Research Protocol Committee at McGuire VA Medical Center, Richmond, VA Xenografts were generated by injecting 10^5 CD133 hi/CXCR4hi (Dual hi) fluorescence-activated cell sorter (FACS) isolated HT29 cells suspended in 50% reduced growth factor Matrigel (BD Bioscience; in 50 μL sterile PBS) into the right flank of 6-week-old, female NCr nude mice (Taconic Farms) subcutaneously.
Once the tumors reached 50 mm^3, mice were randomized to either of the three groups (vehicle, 200 mg/kg G2.2, or 100 mg/kg IIb) and dosed i.p three times a week for three weeks. Tumor measurements on each animal were made 3 times a week with Vernier calipers, and tumor volume was calculated using the formula: V=W^2 (L)/2, where V is the volume in mm^3, and W and L are the width and length in mm. […] The remainder of animals were monitored till they reached predefined humane end-points. Animals were sacrificed per Institutional Animal Care and Use Committee—approved methods of euthanasia.

[9] = test system: xenografts-derived cells (HT-29), 3° spheroids; assay: Ex vivo tertiary spheroid formation of xenograft-derived cells; format: cell-based; settings: cells from treated xenografts, a week after last dose
Source text: We also utilized our earlier observation that CSCs/progenitors are enhanced several-fold in spheroid culture and assessed the xenografts-derived cells for retention of tertiary spheroid growth inhibition profiles to distinguish between non self-renewing progenitors and self-renewing CSCs ex vivo.

[10] = test system: cancerous tissue-derived primary human spheroids; assay: Patient-derived spheroid growth, cancerous colon tissue; format: cell-based; settings: 5 μM
[11] = HT-29 CSCs, Table 4, read-out: IC50 (HT-29 CSCs)
[12] = HT-29 spheroid growth, read-out: Spheroid IC50

Molecule: O=c1c(OS(=O)(=O)O)c(-c2ccc(OS(=O)(=O)O)c(OS(=O)(=O)O)c2)oc2cc(OS(=O)(=O)O)cc(OCCCOc3cc(OS(=O)(=O)O)cc4oc(-c5ccc(OS(=O)(=O)O)c(OS(=O)(=O)O)c5)c(OS(=O)(=O)O)c(=O)c34)c12 [Compound G2.2]
half-life [1]: 4 h | oral bioavailability [1]: < 1% | IC50 [2, 11]: 29 ± 1 µM | IC50 [2, 12]: 29 ± 1 µM | Safety Index [3]: 22-fold | Concentration required to double APTT [3]: 640 µM | IC50 [4]: > 500 µM | distribution phase ([5]; G2.2 IV bolus 50 mg/kg, rats): about 1.5 hours | AUC0-∞ (area under the plasma concentration v/s time curve) ([5]; IP 200 mg/kg, rat): 6398 µg·h/mL | Cmax ([5]; IP 200 mg/kg, rat): 925 µM | Cmax (maximum plasma concentration) ([5]; IP 200 mg/kg, rat): ~1350 µg/mL | t1/2 (terminal half-life) ([5]; IP 200 mg/kg, rat): 3 h | F (absolute bioavailability) ([5]; IP 200 mg/kg, rat, 200 mg/kg): 30% | terminal half-life ([5]; IV bolus 50 mg/kg, rats): 4.4 h | AUC0-∞ (area under the plasma concentration v/s time curve) ([5]; PO 200 mg/kg, rats): 584 µg·h/mL | Cmax ([5]; PO 200 mg/kg, rats): 55.6 µM | t1/2 (terminal half-life) ([5]; PO 200 mg/kg, rats): 4.6 h | Cmax (maximum plasma concentration) ([5]; PO 200 mg/kg, rats, 200 mg/kg): 81.2 µg/mL and 81 µg/mL | F (absolute bioavailability) ([5]; PO 200 mg/kg, rats, 200 mg/kg): 3% | inhibition of RKO colon spheroids [6]: dose-dependent inhibition

Molecule: CC(C)CCCC(C)C1CCC2C3CC=C4CC(OCCCCCOc5cc(-c6oc7cc(OS(=O)(=O)[O-])cc(OCCCOc8cc(OS(=O)(=O)[O-])cc9oc(-c%10ccc(OS(=O)(=O)[O-])c(OS(=O)(=O)[O-])c%10)c(OS(=O)(=O)[O-])c(=O)c89)c7c(=O)c6OS(=O)(=O)[O-])ccc5OS(=O)(=O)[O-])CCC4(C)C3CCC12C.[Na+].[Na+].[Na+].[Na+].[Na+].[Na+].[Na+] (centres unmarked) [IIb]
effect on spheroid growth formation, normal tissue [7]: without any effect | decrease in tumor volume compared with vehicle controls ([8]; 100 mg/kg i.p., 3 times a week x 3 weeks, end of treatment): > 80% | gross toxicity (animal body weight) ([8]; 100 mg/kg i.p., nude mice): did not show any gross toxic effects; also recorded: no gross toxicity | CSC markers (DCLK1, LGR5) and self-renewal factor (BMI-1), western blot of xenografts ([8]; 100 mg/kg i.p., vs vehicle): robust reduction; also recorded: reduction in CSC markers | tumor volume compared to vehicle treated mice ([8]; 100 mg/kg, i.p.): significant reduction in tumor volume | effect on tumor volume compared to G2.2 (200 mg/kg) ([8]; IIb 100 mg/kg i.p.): > 2 fold | CSC markers, flow cytometry analysis of mice xenografts ([8]; IIb treated mice): reduction in CSC markers | in vivo potency relative to G2.2 ([8]; overall in vivo studies): ~4 fold | IC50 [2, 11]: 8.2 ± 1.5 µM | IC50 [2, 12]: 8.2 ± 1.5 µM | decrease in 3° spheroid formation vs vehicle controls [9]: 2.6 fold | Safety Index [3]: 6-fold | Concentration required to double APTT [3]: 48 µM | IC50 [4]: > 500 µM | inhibition of spheroid growth formation, cancerous tissue [10]: significantly inhibited | peaks in the plasma concentration vs. time profile ([5]; PO nominal 50 mg/kg, rats, 0-8 h): At least 2 | inhibition of RKO colon spheroids [6]: dose-dependent inhibition

Molecule: CC(C)CCCC(C)C1CCC2C3CC=C4CC(OCCCCCCCCOc5cc(-c6oc7cc(OS(=O)(=O)[O-])cc(OCCCOc8cc(OS(=O)(=O)[O-])cc9oc(-c%10ccc(OS(=O)(=O)[O-])c(OS(=O)(=O)[O-])c%10)c(OS(=O)(=O)[O-])c(=O)c89)c7c(=O)c6OS(=O)(=O)[O-])ccc5OS(=O)(=O)[O-])CCC4(C)C3CCC12C.[Na+].[Na+].[Na+].[Na+].[Na+].[Na+].[Na+] (centres unmarked) [IIc]
IC50 [2, 11]: 0.8 ± 0.2 µM | IC50 [2, 12]: 0.8 ± 0.2 µM | Safety Index [3]: 63-fold | Concentration required to double APTT [3]: 50 µM | Monolayer IC50 [4]: 1079 ± 15% | absorption compared with G2.2 ([5]; PO, rats): far greater than that for G2.2

Concentration required to double APTT [3]: 2.5 µM
Molecule: Enoxaparin [reference compound]
